Results on 1 substance are retold here after patent EP4445909B1, “PHARMACEUTICAL FORMULATION CONSISTING OF C-PEPTIDE COMBINED WITH A BISPHOSPHONATE IN A SINGLE FORM AND ITS USE IN THE TREATMENT OF OSTEOSARCOPENIA” (Università Degli Studi Magna Graecia di Catanzaro, priority 2023, dated 2026).

Holding throughout (format): in vivo
Test [1] relates to muscle fibers of the Gastrocnemius (GC), Thiabialis (TA) and the long finger extensor muscle (EDL). Nature of the test: Muscle fibre morphometry (CSA, perimeter, Minimum Feret diameter) after C-Peptide administration in diabetic rats. The settings on record: 72 nmol/kg/24 h for 42 days. Here is the method: The experimental tests carried out by the Applicant have shown that the administration of 72 nmol/kg/24 h of C-Peptide for 42 days improves the cross-sectional area (CSA), the perimeter and the Minimum Feret diameter of the muscle fibers of the Gastrocnemius (GC), Thiabialis (TA) and the long finger extensor muscle (EDL) in diabetic rats. Specifically, the mean CSA of the GC fibers decreased by 39.5% in the diabetic group, while only 6.6% in the rats of the C-peptide group. The CSA of the TA and EDL muscles was reduced, in the C-peptide group, by 10% and 11%, respectively, while a reduction of 65% and 45% occurred in the diabetic group, compared to the control animals. Similar results were obtained with the other parameters (perimeter and Minimum Feret diameter).

Test [2] concerns serum ubiquitin. Nature of the test: Serum ubiquitin in diabetic rats after C-peptide administration. The settings on record: 72 nmol/kg/24 h for 42 days.
Test [3] relates to bone. In words: Micro-CT of trabecular bone in diabetic rats after C-peptide administration. The settings on record: 72 nmol/kg/24 h, compared to the diabetes only group (D-CTR).

Regarding C-peptide, the “cross-sectional area (CSA), perimeter and Minimum Feret diameter of the muscle fibers of GC, TA and EDL” value in test [1] is given as “improves”. Besides, the “mean CSA of the GC fibers decreased” value in test [1] (Gastrocnemius, diabetic group decreased by 39.5%) came to 6.6%. Moreover, the “CSA of the EDL muscle reduced” value in test [1] (compared to the control animals, diabetic group 45%) was determined as 11%. Further, in test [1] (compared to the control animals, diabetic group 65%), the “CSA of the TA muscle reduced” value was found to be 10%. In addition, the “serum ubiquitin, induced by diabetes” value in test [2] was “prevents the increase”. Further, in test [3] (p=0.01), the trabecular spaces entry is recorded as “reduction”. Moreover, in test [3] (p=0.04), the trabecular thickness entry is recorded as “better”.
